Our source for the dichlorophenolindophenol reduction assay values is article PMC4967059, “Efficient 9α-hydroxy-4-androstene-3,17-dione production by engineered Bacillus subtilis co-expressing Mycobacterium neoaurum 3-ketosteroid 9α-hydroxylase and B. subtilis glucose 1-dehydrogenase with NADH regeneration” (SpringerPlus, 2016).

The target in this assay is T1, KshB (Mycolicibacterium neoaurum, UniProt D2Y640).
T1 construct: gene kstR; pMA5-kshB primer R1 carries no His-tag
Description: dichlorophenolindophenol reduction assay. It counts as biochemical. The settings on record: 0.25 mM NADH, 0.1 mM 2,6-dichlorophenolindophenol, 50 mM Tris-HCl pH 7.0, room temperature; electron donor; data not shown.

T1 sequence (D2Y640 entry or part of it): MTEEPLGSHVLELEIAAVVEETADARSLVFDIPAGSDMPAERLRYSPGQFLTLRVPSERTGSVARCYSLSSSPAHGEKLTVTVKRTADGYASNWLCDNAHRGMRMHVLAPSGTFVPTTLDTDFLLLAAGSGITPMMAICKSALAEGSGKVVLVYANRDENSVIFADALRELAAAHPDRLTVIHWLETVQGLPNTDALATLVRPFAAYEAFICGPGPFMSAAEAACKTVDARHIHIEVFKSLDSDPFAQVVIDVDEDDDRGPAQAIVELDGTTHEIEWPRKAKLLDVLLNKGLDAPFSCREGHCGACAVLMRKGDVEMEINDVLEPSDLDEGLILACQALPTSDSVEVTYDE

Take `NC(=O)C1=CN([C@@H]2O[C@H](COP(=O)(O)OP(=O)(O)OC[C@H]3O[C@@H](n4cnc5c(N)ncnc54)[C@H](O)[C@@H]3O)[C@@H](O)[C@H]2O)C=CC1` [NADH]: the dichlorophenolindophenol reduction assay entry was “accepts electrons from NAD(P)H and transfers it to oxygenase component KshA”.
